Results taken from patent publication US12018059B2, “Human amylin analog polypeptides and methods of use” (Intarcia Therapeutics, Inc., priority 2018, dated 2024).
Starred links: 1 amine or outer side, 2 acyl side, 3 side chain; linkers in the order of their positions; H or OH if unused. Positions of bridges follow the written chain, without caps; N, C: chain ends. Residues, ends and D or L forms follow the SMILES beside them. Groups on a side chain read outwards from the residue. *: point of attachment. X3 = O=C(O)CCCCCCCCCCCCCCCCCCC(=O)N[C@@H](CCC(=O)NCOCCOCC(=O)NCOCCOCC(=O)*)C(=O)O; C18 diacid = O=C(O)CCCCCCCCCCCCCCCCC(=O)*; C16 diacid = O=C(O)CCCCCCCCCCCCCCC(=O)*; γGlu = O=C(O)[C@H](CCC(=O)[*:2])N[*:1]

Assay: in vivo
Design: species or system Sprague-Dawley rats
Details: rat, iv, 0.033 mg/kg
In short: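 Male Sprague-Dawley rats, non-fasted (n=3), given peptide in saline as 1-h IV or SC infusion at 0.033 mg/kg, or SC bolus at 0.3 mg/kg; jugular blood to 48 h into K2EDTA plus protease inhibitors. Plasma extracted by precipitation or WCX solid-phase extraction, quantified by UPLC-MS/MS against standards in matching rat plasma.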

**Q.** For `CC[C@H](C)[C@H](NC(=O)[C@@H]1CCCN1C(=O)CNC(=O)[C@H](Cc1ccccc1)NC(=O)[C@H](CC(N)=O)NC(=O)[C@H](CC(N)=O)NC(=O)[C@H](CO)NC(=O)[C@H](CO)NC(=O)[C@H](CCCCN)NC(=O)[C@H](Cc1c[nH]cn1)NC(=O)[C@H](CC(C)C)NC(=O)[C@H](CCCCNC(=O)CC[C@H](NC(=O)CC[C@H](NC(=O)CCCCCCCCCCCCCCC(=O)O)C(=O)O)C(=O)O)NC(=O)[C@H](CC(N)=O)NC(=O)[C@H](C)NC(=O)[C@H](CC(C)C)NC(=O)[C@H](CCCNC(=N)N)NC(=O)[C@H](CCC(N)=O)NC(=O)[C@@H](NC(=O)[C@H](C)NC(=O)[C@@H]1CSSC[C@H](NC(=O)[C@@H](N)CO)C(=O)N[C@@H](CC(N)=O)C(=O)N[C@@H]([C@@H](C)O)C(=O)N[C@@H](CO)C(=O)N[C@@H]([C@@H](C)O)C(=O)N1)[C@@H](C)O)C(=O)N[C@@H](CC(C)C)C(=O)N1CCC[C@H]1C(=O)N1CCC[C@H]1C(=O)N[C@H](C(=O)N[C@@H](CCCCN)C(=O)N[C@H](C(=O)NCC(=O)N[C@@H](CO)C(=O)N[C@@H](CCC(=O)O)C(=O)N[C@H](C(=O)N[C@@H](Cc1ccc(O)cc1)C(N)=O)[C@@H](C)O)C(C)C)[C@@H](C)O` [Compound A82] (H-SCNTSTCATQRLANK([γGlu-γGlu-C16 diacid])LHKSSNNFGPILPPTKVGSETY-NH2; disulfide 2-7), which Vd is on record?
**A.** Its Vd is 0.152 L/kg.

**Q.** And the clearance?
**A.** Its clearance is 0.667 mL/min/kg.

**Q.** And the half-life?
**A.** The half-life was 3.17 h.

**Q.** Which results are given for `CC[C@H](C)[C@H](NC(=O)[C@@H]1CCCN1C(=O)CNC(=O)[C@H](Cc1ccccc1)NC(=O)[C@H](CC(N)=O)NC(=O)[C@H](CC(N)=O)NC(=O)[C@H](CO)NC(=O)[C@H](CO)NC(=O)[C@H](CCCCN)NC(=O)[C@H](Cc1c[nH]cn1)NC(=O)[C@H](CC(C)C)NC(=O)[C@H](CCCCNC(=O)CCCCCCCCCCCCCCCCC(=O)O)NC(=O)[C@H](CC(N)=O)NC(=O)[C@H](C)NC(=O)[C@H](CC(C)C)NC(=O)[C@H](CCCNC(=N)N)NC(=O)[C@H](CCC(N)=O)NC(=O)[C@@H](NC(=O)[C@H](C)NC(=O)[C@@H]1CSSC[C@H](NC(=O)[C@@H](N)CO)C(=O)N[C@@H](CC(N)=O)C(=O)N[C@@H]([C@@H](C)O)C(=O)N[C@@H](CO)C(=O)N[C@@H]([C@@H](C)O)C(=O)N1)[C@@H](C)O)C(=O)N[C@@H](CC(C)C)C(=O)N1CCC[C@H]1C(=O)N1CCC[C@H]1C(=O)N[C@H](C(=O)N[C@@H](CCCCN)C(=O)N[C@H](C(=O)NCC(=O)N[C@@H](CO)C(=O)N[C@@H](CCC(=O)O)C(=O)N[C@H](C(=O)N[C@@H](Cc1ccc(O)cc1)C(N)=O)[C@@H](C)O)C(C)C)[C@@H](C)O` [Compound A83] (H-SCNTSTCATQRLANK(C18 diacid)LHKSSNNFGPILPPTKVGSETY-NH2; disulfide 2-7)?
**A.** Vd: 0.123 L/kg; clearance: 0.499 mL/min/kg; half-life: 4.06 h

**Q.** Which Vd does the source give for `CC[C@H](C)[C@H](NC(=O)[C@@H]1CCCN1C(=O)CNC(=O)[C@H](Cc1ccccc1)NC(=O)[C@H](CC(N)=O)NC(=O)[C@H](CC(N)=O)NC(=O)[C@H](CO)NC(=O)[C@H](CO)NC(=O)[C@H](CCCCN)NC(=O)[C@H](Cc1c[nH]cn1)NC(=O)[C@H](CC(C)C)NC(=O)[C@H](CCCCNC(=O)CC[C@H](NC(=O)CC[C@H](NC(=O)COCCOCNC(=O)COCCOCNC(=O)CC[C@H](NC(=O)CCCCCCCCCCCCCCCCCCC(=O)O)C(=O)O)C(=O)O)C(=O)O)NC(=O)[C@H](Cc1ccc(O)cc1)NC(=O)[C@H](C)NC(=O)[C@H](CC(C)C)NC(=O)[C@H](CCCNC(=N)N)NC(=O)[C@H](CCC(N)=O)NC(=O)[C@@H](NC(=O)[C@H](C)NC(=O)[C@@H]1CSSC[C@H](NC(=O)[C@@H](N)CO)C(=O)N[C@@H](CC(N)=O)C(=O)N[C@@H]([C@@H](C)O)C(=O)N[C@@H](CO)C(=O)N[C@@H]([C@@H](C)O)C(=O)N1)[C@@H](C)O)C(=O)N[C@@H](CC(C)C)C(=O)N1CCC[C@H]1C(=O)N1CCC[C@H]1C(=O)N[C@H](C(=O)N[C@@H](CCCCN)C(=O)N[C@H](C(=O)NCC(=O)N[C@@H](CO)C(=O)N[C@@H](CCC(=O)O)C(=O)N[C@H](C(=O)N[C@@H](Cc1ccc(O)cc1)C(N)=O)[C@@H](C)O)C(C)C)[C@@H](C)O` [Compound A85] (H-SCNTSTCATQRLAYK([γGlu-γGlu-X3])LHKSSNNFGPILPPTKVGSETY-NH2; disulfide 2-7; N-terminus assumed) here?
**A.** Its Vd is 0.146 L/kg.

**Q.** What about the clearance of the same compound?
**A.** The clearance was 0.0496 mL/min/kg.

**Q.** And the half-life?
**A.** Its half-life is 36.7 h.

**Q.** Which Vd does the source give for `CC[C@H](C)[C@H](NC(=O)[C@@H]1CCCN1C(=O)CNC(=O)[C@H](Cc1ccccc1)NC(=O)[C@H](CC(N)=O)NC(=O)[C@H](CC(N)=O)NC(=O)[C@H](CO)NC(=O)[C@H](CO)NC(=O)[C@H](CCCCN)NC(=O)[C@H](Cc1c[nH]cn1)NC(=O)[C@H](CCCCNC(=O)CCCCCCCCCCCCCCC(=O)O)NC(=O)[C@H](CCC(=O)O)NC(=O)[C@H](CC(N)=O)NC(=O)[C@H](C)NC(=O)[C@H](CC(C)C)NC(=O)[C@H](CCCNC(=N)N)NC(=O)[C@H](CCC(N)=O)NC(=O)[C@@H](NC(=O)[C@H](C)NC(=O)[C@@H]1CSSC[C@H](NC(=O)[C@@H](N)CO)C(=O)N[C@@H](CC(N)=O)C(=O)N[C@@H]([C@@H](C)O)C(=O)N[C@@H](CO)C(=O)N[C@@H]([C@@H](C)O)C(=O)N1)[C@@H](C)O)C(=O)N[C@@H](CC(C)C)C(=O)N1CCC[C@H]1C(=O)N1CCC[C@H]1C(=O)N[C@H](C(=O)N[C@@H](CCCCN)C(=O)N[C@H](C(=O)NCC(=O)N[C@@H](CO)C(=O)N[C@@H](CCC(=O)O)C(=O)N[C@H](C(=O)N[C@@H](Cc1ccc(O)cc1)C(N)=O)[C@@H](C)O)C(C)C)[C@@H](C)O` [Compound A86] (H-SCNTSTCATQRLANEK(C16 diacid)HKSSNNFGPILPPTKVGSETY-NH2; disulfide 2-7) here?
**A.** Its Vd is 0.0936 L/kg.

**Q.** What about the clearance of the same compound?
**A.** The clearance was 0.297 mL/min/kg.

**Q.** And the half-life?
**A.** The half-life was 4.65 h.

**Q.** What does the source list for `CC[C@H](C)[C@H](NC(=O)[C@@H]1CCCN1C(=O)CNC(=O)[C@H](Cc1ccccc1)NC(=O)[C@H](CC(N)=O)NC(=O)[C@H](CC(N)=O)NC(=O)[C@H](CO)NC(=O)[C@H](CO)NC(=O)[C@H](CCCCN)NC(=O)[C@H](Cc1c[nH]cn1)NC(=O)[C@H](CC(C)C)NC(=O)[C@H](CCCCNC(=O)CC[C@H](NC(=O)CC[C@H](NC(=O)CCCCCCCCCCCCCCCCC(=O)O)C(=O)O)C(=O)O)NC(=O)[C@H](CC(N)=O)NC(=O)[C@H](C)NC(=O)[C@H](CC(C)C)NC(=O)[C@H](CCCNC(=N)N)NC(=O)[C@H](CCC(N)=O)NC(=O)[C@@H](NC(=O)[C@H](C)NC(=O)[C@@H]1CSSC[C@H](NC(=O)[C@@H](N)CO)C(=O)N[C@@H](CC(N)=O)C(=O)N[C@@H]([C@@H](C)O)C(=O)N[C@@H](CO)C(=O)N[C@@H]([C@@H](C)O)C(=O)N1)[C@@H](C)O)C(=O)N[C@@H](CC(C)C)C(=O)N1CCC[C@H]1C(=O)N1CCC[C@H]1C(=O)N[C@H](C(=O)N[C@@H](CCCCN)C(=O)N[C@H](C(=O)NCC(=O)N[C@@H](CO)C(=O)N[C@@H](CCC(=O)O)C(=O)N[C@H](C(=O)N[C@@H](Cc1ccc(O)cc1)C(N)=O)[C@@H](C)O)C(C)C)[C@@H](C)O` [Compound A87] (H-SCNTSTCATQRLANK([γGlu-γGlu-C18 diacid])LHKSSNNFGPILPPTKVGSETY-NH2; disulfide 2-7)?
**A.** Vd: 0.143 L/kg; clearance: 0.108 mL/min/kg; half-life: 17.7 h
